Assay results published in patent US20240246908A1 (ORION CORPORATION, priority 2021, published 2024).

System: YAP-TEAD
Test: TEAD inhibition, Hippo Pathway TEAD Reporter MCF-7 luciferase assay
Assay type: cell-based
Conditions: Homo sapiens, MCF7, 24 h, Hippo Pathway TEAD Reporter MCF-7 cells, luciferase activity after 24 h; read-out: IC50 of the test compounds on YAP-TEAD inhibition (Group)
Summary of the method: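 IC50 derived from ONE-Glo luciferase luminescence after 24 h compound exposure (11 concentrations in quadruplicate, 0.1% DMSO control). Reporter: MCF-7 line expressing firefly luciferase under TEAD elements, constitutively activated by nuclear YAP1.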

Question: Which IC50 does the source give for `CN1C(=O)CCC1C(=O)Nc1cc(Oc2cccc(C(F)(F)F)c2)ccc1Br` (centres unmarked) [Compound 366, N-(2-Bromo-5-(3-(trifluoromethyl)phenoxy)phenyl)-1-methyl-5-oxopyrrolidine-2-carboxamide] here?
Answer: Its IC50 is 301 to 2000 nM.

Question: `CN1C(=O)CCC1C(=O)Nc1cc(Oc2ccc(C(F)(F)F)cc2)ccc1C#N` (centres unmarked) [Compound 367, N-(2-Cyano-5-(4-(trifluoromethyl)phenoxy)phenyl)-1-methyl-5-oxopyrrolidine-2-carboxamide] was tested. Which IC50 did it give?
Answer: The IC50 was 301 to 2000 nM.

Question: With `CN1C(=O)CCC1C(=O)Nc1cc(Oc2ccc(C(F)(F)F)cn2)ccc1F` (centres unmarked) [Compound 368, N-(2-Fluoro-5-((5-(trifluoromethyl)pyridin-2-yl)oxy)phenyl)-1-methyl-5-oxopyrrolidine-2-carboxamide] as the compound, how does the IC50 read?
Answer: The IC50 was 50 to 300 nM.

Question: Which IC50 does the source give for `COc1ccc(Oc2ccc(C(F)(F)F)cc2)cc1NC(=O)[C@@H]1C[C@@H](O)CN1` [Compound 370, (2S,4R)-4-Hydroxy-N-(2-methoxy-5-(4-(trifluoromethyl)phenoxy)phenyl)pyrrolidine-2-carboxamide] here?
Answer: The IC50 was 301 to 2000 nM.

Question: Which IC50 does the source give for `COc1ccc(Oc2ccc(C(F)(F)F)cc2)cc1NC(=O)[C@@H]1CCC(=O)N1C(C)=O` [Compound 371, (S)-1-Acetyl-N-(2-methoxy-5-(4-(trifluoromethyl)phenoxy)-phenyl)-5-oxopyrrolidine-2-carboxamide] here?
Answer: Its IC50 is 50 to 300 nM.

Question: Which IC50 does the source give for `CN1C(=O)CCC1C(=O)Nc1cc(Oc2ccc(C(F)(F)F)cc2)ccc1O` (centres unmarked) [Compound 372, N-(2-Hydroxy-5-(4-(trifluoromethyl)phenoxy)phenyl)-1-methyl-5-oxopyrrolidine-2-carboxamide] here?
Answer: Its IC50 is 301 to 2000 nM.

Question: For `CN1C(=O)NC[C@H]1C(=O)Nc1cc(Oc2ccc(C(F)(F)F)cn2)ccc1O` [Compound 373, (S)—N-(2-Hydroxy-5-((5-(trifluoromethyl)pyridin-2-yl)oxy)phenyl)-3-methyl-2-oxoimidazolidine-4-carboxamide], which IC50 is on record?
Answer: The IC50 was 301 to 2000 nM.

Question: With `COc1ccc(Oc2ccc(C(F)(F)F)cc2)cc1NC(=O)C1CNCC(=O)N1C` (centres unmarked) [Compound 374, N-(2-Methoxy-5-(4-(trifluoromethyl)phenoxy)phenyl)-1-methyl-6-oxopiperazine-2-carboxamide] as the compound, how does the IC50 read?
Answer: Its IC50 is 301 to 2000 nM.

Question: Which IC50 does the source give for `CNC(CCC(=O)O)C(=O)Nc1cc(Oc2ccc(C(F)(F)F)cc2)ccc1OC` (centres unmarked) [Compound 375] here?
Answer: Its IC50 is < 50 nM.

Question: Which IC50 does the source give for `CN1C(=O)CNCC1C(=O)Nc1cc(Oc2ccc(C(F)(F)F)cc2)cc2c1OCC2` (centres unmarked) [Compound 376, 1-Methyl-6-oxo-N-(5-(4-(trifluoromethyl)phenoxy)-2,3-dihydro-benzofuran-7-yl)piperazine-2-carboxamide] here?
Answer: The IC50 was 50 to 300 nM.

Question: With `COc1ccc(Oc2ccc(C(F)(F)F)cc2)cc1NC(=O)C1CCC(=O)N1CCC(N)=O` (centres unmarked) [Compound 379, 1-(3-Amino-3-oxopropyl)-N-(2-methoxy-5-(4-(trifluoromethyl)-phenoxy)phenyl)-5-oxopyrrolidine-2-carboxamide] as the compound, how does the IC50 read?
Answer: Its IC50 is 50 to 300 nM.

Question: `COc1ccc(Oc2ccc(C(F)(F)F)cc2)cc1NC(=O)[C@@H]1C[C@H](O)C(=O)N1C` [Compound 380, (2S,4S)-4-Hydroxy-N-(2-methoxy-5-(4-(trifluoromethyl)phenoxy)phenyl)-1-methyl-5-oxopyrrolidine-2-carboxamide] was tested. Which IC50 did it give?
Answer: Its IC50 is 50 to 300 nM.

Question: Which IC50 does the source give for `COc1ccc(Oc2ccc(C(F)(F)F)cc2)cc1NC(=O)C1CCS(=N)(=O)CC1` (centres unmarked) [Compound 381, 1-Imino-N-(2-methoxy-5-(4-(trifluoromethyl)phenoxy)phenyl)-hexahydro-1λ^6-thiopyran-4-carboxamide 1-oxide] here?
Answer: Its IC50 is 50 to 300 nM.

Question: `COc1cc(F)c(Oc2ccc(C(F)(F)F)cc2)cc1NC(=O)C1CNC(=O)N1C` (centres unmarked) [Compound 382, N-(4-Fluoro-2-methoxy-5-(4-(trifluoromethyl)phenoxy)phenyl)-3-methyl-2-oxoimidazolidine-4-carboxamide] was tested. Which IC50 did it give?
Answer: The IC50 was < 50 nM.

Question: For `CN1CC(=O)N(C)C(C(=O)Nc2cc(Oc3ccc(C(F)(F)F)cc3)cc3c2OCC3)C1` (centres unmarked) [Compound 383, 1,4-Dimethyl-6-oxo-N-(5-(4-(trifluoromethyl)phenoxy)-2,3-dihydrobenzofuran-7-yl)piperazine-2-carboxamide], which IC50 is on record?
Answer: Its IC50 is 50 to 300 nM.

Question: With `COc1ccc(Oc2ccc(Cl)cc2F)cc1NC(=O)C1CCC(=O)N1C` (centres unmarked) [Compound 385, N-(5-(4-Chloro-2-fluorophenoxy)-2-methoxyphenyl)-1-methyl-5-oxopyrrolidine-2-carboxamide] as the compound, how does the IC50 read?
Answer: Its IC50 is < 50 nM.

Question: `COc1ccc(NC(=O)C2CCC(=O)N2C)cc1Cc1ccc(C(F)(F)F)cc1` (centres unmarked) [Compound 387, N-(4-Methoxy-3-(4-(trifluoromethyl)benzyl)phenyl)-1-methyl-5-oxo-pyrrolidine-2-carboxamide] was tested. Which IC50 did it give?
Answer: Its IC50 is 301 to 2000 nM.

Question: How did the IC50 turn out when `COc1ccc(Oc2ccc(C(F)(F)F)cc2)cc1NC(=O)c1coc(=O)[nH]1` [Compound 388, N-(2-Methoxy-5-(4-(trifluoromethyl)phenoxy)phenyl)-2-oxo-2,3-dihydrooxazole-4-carboxamide] was run?
Answer: Its IC50 is 301 to 2000 nM.

Question: Which IC50 does the source give for `COc1ccc(Oc2ccc(F)c(F)c2)c(C)c1NC(=O)C1CCC(=O)N1C` (centres unmarked) [Compound 389, N-(3-(3,4-Difluorophenoxy)-6-methoxy-2-methylphenyl)-1-methyl-5-oxopyrrolidine-2-carboxamide] here?
Answer: Its IC50 is 301 to 2000 nM.

Question: For `COc1ccc(Oc2cccc(C#N)c2)cc1NC(=O)C1CCC(=O)N1C` (centres unmarked) [Compound 390, N-(5-(3-Cyanophenoxy)-2-methoxyphenyl)-1-methyl-5-oxopyrrolidine-2-carboxamide], which IC50 is on record?
Answer: Its IC50 is 301 to 2000 nM.

Question: For `COc1ccc(Oc2ccc(C(F)(F)F)c(OC)c2)cc1NC(=O)C1CCC(=O)N1C` (centres unmarked) [Compound 391, N-(2-Methoxy-5-(3-methoxy-4-(trifluoromethyl)phenoxy)phenyl)-1-methyl-5-oxopyrrolidine-2-carboxamide], which IC50 is on record?
Answer: Its IC50 is < 50 nM.

Question: With `COc1ccc(Oc2ccc(C(F)(F)F)cc2)cc1NC(=O)c1nnn[nH]1` [Compound 392, N-(2-Methoxy-5-(4-(trifluoromethyl)phenoxy)phenyl)-1H-tetrazole-5-carboxamide] as the compound, how does the IC50 read?
Answer: The IC50 was 301 to 2000 nM.

Question: How did the IC50 turn out when `COc1ccc(Oc2cc(C(F)(F)F)ccn2)cc1NC(=O)[C@H]1CCC(=O)N1C` [Compound 393, (R)—N-(2-Methoxy-5-((4-(trifluoromethyl)pyridin-2-yl)oxy)phenyl)-1-methyl-5-oxopyrrolidine-2-carboxamide] was run?
Answer: Its IC50 is 301 to 2000 nM.

Question: How did the IC50 turn out when `COc1ccc(Oc2cc(C(F)(F)F)ccn2)cc1NC(=O)[C@@H]1CCC(=O)N1C` [Compound 394, (S)—N-(2-Methoxy-5-((4-(trifluoromethyl)pyridin-2-yl)oxy)phenyl)-1-methyl-5-oxopyrrolidine-2-carboxamide] was run?
Answer: The IC50 was 301 to 2000 nM.

Question: `COc1ccc(Oc2ccc(C(F)(F)F)c(F)c2)cc1NC(=O)C1CCC(=O)N1C` (centres unmarked) [Compound 395] was tested. Which IC50 did it give?
Answer: The IC50 was < 50 nM.

Question: Which IC50 does the source give for `COc1ccc(Oc2ccc(C#N)c(C(F)(F)F)c2)cc1NC(=O)C1CCC(=O)N1C` (centres unmarked) [Compound 396, N-(5-(4-Cyano-3-(trifluoromethyl)phenoxy)-2-methoxyphenyl)-1-methyl-5-oxopyrrolidine-2-carboxamide] here?
Answer: The IC50 was 50 to 300 nM.

Question: `COc1ccc(Oc2ccc(F)c(C#N)c2)cc1NC(=O)C1CCC(=O)N1C` (centres unmarked) [Compound 397, N-(5-(3-Cyano-4-fluorophenoxy)-2-methoxyphenyl)-1-methyl-5-oxopyrrolidine-2-carboxamide] was tested. Which IC50 did it give?
Answer: The IC50 was 301 to 2000 nM.

Question: `COc1ccc(Oc2ccc(C(F)(F)F)cc2F)cc1NC(=O)[C@@H]1CCC(=O)N1C` [Compound 398, (S)—N-(5-(2-Fluoro-4-(trifluoromethyl)phenoxy)-2-methoxyphenyl)-1-methyl-5-oxopyrrolidine-2-carboxamide] was tested. Which IC50 did it give?
Answer: The IC50 was < 50 nM.

Question: Which IC50 does the source give for `COc1ccc(Oc2cnc(C(F)(F)F)c(F)c2)cc1NC(=O)C1CCC(=O)N1C` (centres unmarked) [Compound 399] here?
Answer: Its IC50 is < 50 nM.
